Assay results from PubChem BioAssay AID2060882 (Molecular Pharmacology Branch, DTP, NCI, 2025).
One block for each compound: values may come before it.

System: 898857-211-R-J1-PDC complex spheroids, growth % test/control
Assay: Anticancer human tumor 898857-211-R-J1-PDC patient-derived melanoma cell line growth inhibition [RAS]
Details: for IC50: curve of first compound; for viability, T/C: stronger effect = lower value
Text: RAS pathway inhibitors in Combinations in Complex Spheroids
A high-throughput screen of multi-cell type tumor spheroids was designed to identify active combinations of RAS pathway inhibitors and targeted small molecules. Complex spheroids include a stromal component modeled by human endothelial cells (HUVEC) and fibroblasts modeled by human mesenchymal stem cells (MSCs). The concentration ranges selected for each drug and investigational agent were based upon clinically achievable concentrations if the clinical Cmax of the agent was known.
Compounds. The drugs and investigational agents: abemaciclib (NSC768073), cobimetinib (NSC768068), divarasib (GDC6063, NSC841802), docetaxel (NSC628503), GDC-1971 (RLY-1971, NSC841576), gemcitabine (NSC613327), inavolisib (NSC800729), ipatasertib (NSC767898), KB-0742 (NSC834161), MRTX-1133 (NSC836407), osimertinib (NSC779217), RMC-4630 (NSC839698), RMC-6236 (NSC851965), RMC-6291 (NSC852671), Ro-3306 (NSC812927), sapanisertib (NSC764658), SN-38 (NSC673596), staurosporine (NSC755774), SY5609 (NSC837396), and tovorafenib (DAY101, NSC766906), were obtained from the National Cancer Institute (NCI) Developmental Therapeutics Program Chemical Repository. The FDA-approved anticancer drug set is available from the NCI Developmental Therapeutics Program. […] The stock solutions were prepared in dimethyl sulfoxide (DMSO, Sigma-Aldrich, St. Louis, MO, cat. D2650) at 800-fold the tested concentration and stored at -70 degrees C prior to their use. All drugs and investigational agents were tested over a range starting from a high concentration at or near the clinical Cmax and decreasing in half-log increments. If the clinical Cmax for an agent had not been determined, the highest concentration tested was 10 microM.
Cell Culture. All cells were maintained in an incubator at 37 degrees C and 5% CO2 with 95% humidity. The PDC lines were cultured according to standard operating procedures established by the NCI PDMR. All PDCs were thawed and cultured in Matrigel-coated flasks prepared with a working solution of 1X Ham's F-12 nutrient mix, without supplementation (Invitrogen, Waltham, MA, cat. 11765054), 100 U/mL penicillin-streptomycin (Invitrogen, cat. 15140122), and 2.5% Matrigel (Corning Inc., Corning, NY, cat. 354248) for the first three passages. The 362531-283-R-J2-PDC and 782815-120-R-J1-PDC lines were cultured in 6C/Colon 1B media, which includes advanced DMEM/F-12 (Thermo Fisher Scientific, cat. 12634028), 10 mM HEPES (Thermo Fisher Scientific, cat. 15630080), 1X GlutaMAX supplement (Thermo Fisher Scientific, cat. 35050061), 0.1 mg/mL primocin (InvivoGen, San Diego, CA, cat. ant-pm-2), 10% defined fetal bovine serum, heat inactivated (HyClone Laboratories Inc., Logan, UT, cat. SH30070.03HI), 50% L-WRN conditioned media (ATCC, cat. CRL-3276), 1.25 mM N-Acetyl-L-cysteine (Sigma-Aldrich, cat. A9165), 10 mM nicotinamide (Sigma-Aldrich, cat. N0636), 1X B-27 supplement (Thermo Fisher Scientific, cat. 17504044), 1X N-2 supplement (Thermo Fisher Scientific, cat. 17502048), 50 ng/mL human EGF (Thermo Fisher Scientific, cat. PHG0311), and 10 microM Y-27632 dihydrochloride (Tocris Bioscience, cat. 1254). The K12877-001-R-J1-PDC line was cultured in 6I media, which includes all 6C/Colon 1B media plus 10 ng/mL human FGF-10 (PeproTech, cat. 100-26), 1 ng/mL human FGF-2 (PeproTech, cat. 100-18B), 1 µM prostaglandin E2 (Tocris Bioscience, cat. 2296), […] hydrocortisone (Sigma-Aldrich, cat. H4001), and […] bovine insulin (Sigma-Aldrich, cat. I6634). The K86415-001-R-J1-PDC line was cultured in 6D media, which includes all 6C/Colon 1B media components minus the L-WRN conditioned media. The 485176-168-R4-J1-PDC was cultured in PANC media, which includes all 6C/Colon 1B media plus 100 ng/mL human FGF-10 (PeproTech, cat. 100-26), 500 nM SB-431542 (Selleckchem, cat. S1067), and 10 nM gastrin (Tocris Bioscience, cat. 3006). […]

[1] = second compound 0.000949 µM, first compound 0.0316 µM
[2] = second compound 0.000949 µM, first compound 0.1 µM
[3] = second compound 0.000949 µM, first compound 0.316 µM
[4] = second compound 0.000949 µM, first compound 1 µM
[5] = second compound 0.003 µM, first compound 0.0316 µM
[6] = second compound 0.003 µM, first compound 0.1 µM
[7] = second compound 0.003 µM, first compound 0.316 µM
[8] = second compound 0.003 µM, first compound 1 µM
[9] = second compound 0.00949 µM, first compound 0.0316 µM
[10] = second compound 0.00949 µM, first compound 0.1 µM
[11] = second compound 0.00949 µM, first compound 0.316 µM
[12] = second compound 0.00949 µM, first compound 1 µM
[13] = second compound 0.03 µM, first compound 0.0316 µM
[14] = second compound 0.03 µM, first compound 0.1 µM
[15] = second compound 0.03 µM, first compound 0.316 µM
[16] = second compound 0.03 µM, first compound 1 µM
[17] = second compound 0.0949 µM, first compound 0.0316 µM
[18] = second compound 0.0949 µM, first compound 0.1 µM
[19] = second compound 0.0949 µM, first compound 0.316 µM
[20] = second compound 0.0949 µM, first compound 1 µM
[21] = second compound 0.3 µM, first compound 0.0316 µM
[22] = second compound 0.3 µM, first compound 0.1 µM
[23] = second compound 0.3 µM, first compound 0.316 µM
[24] = second compound 0.3 µM, first compound 1 µM
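Note: spheroids exposed to compound for seven days before readout.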
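Throughout, for viability, T/C: 100% = DMSO vehicle control wells.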

- IC50 (second compound 0.000949 µM): > 10000 nM
- IC50 (second compound 0.003 µM): > 10000 nM
- IC50 (second compound 0.00949 µM): > 10000 nM
- IC50 (second compound 0.03 µM): > 10000 nM
- IC50 (second compound 0.0949 µM): > 10000 nM
- IC50 (second compound 0.3 µM): 5640 nM
Compound: CC(Nc1ccc2c(c1)OCCn1cc(N3C(=O)OCC3C(F)F)nc1-2)C(N)=O (centres undefined) + CCn1c(-c2cccnc2C(C)OC)c2c3cc(ccc31)N1CCOC(CC(NC(=O)C(C(C)C)N(C)C(=O)C3(F)CCN(C(=O)C#CC(C)(C)N(C)C)CC3)C(=O)N3CCCC(N3)C(=O)OCC(C)(C)C2)C1
- viability, T/C [1]: 110%
- viability, T/C [2]: 87%
- viability, T/C [3]: 89.4%
- viability, T/C [4]: 92.7%
- viability, T/C (second compound 0.000949 µM, first compound 3.16 µM): 89.3%
- viability, T/C (second compound 0.000949 µM, first compound 10 µM): 65.8%
- viability, T/C [5]: 105%
- viability, T/C [6]: 103%
- viability, T/C [7]: 97.4%
- viability, T/C [8]: 104%
- viability, T/C (second compound 0.003 µM, first compound 3.16 µM): 96.7%
- viability, T/C (second compound 0.003 µM, first compound 10 µM): 63.2%
- viability, T/C [9]: 94.9%
- viability, T/C [10]: 104%
- viability, T/C [11]: 92.8%
- viability, T/C [12]: 103%
- viability, T/C (second compound 0.00949 µM, first compound 3.16 µM): 78.7%
- viability, T/C (second compound 0.00949 µM, first compound 10 µM): 66.4%
- viability, T/C [13]: 89.8%
- viability, T/C [14]: 98.3%
- viability, T/C [15]: 98.2%
- viability, T/C [16]: 95.4%
- viability, T/C (second compound 0.03 µM, first compound 3.16 µM): 75.8%
- viability, T/C (second compound 0.03 µM, first compound 10 µM): 58.8%
- viability, T/C [17]: 103%
- viability, T/C [18]: 98.7%
- viability, T/C [19]: 91%
- viability, T/C [20]: 83.8%
- viability, T/C (second compound 0.0949 µM, first compound 3.16 µM): 63.1%
- viability, T/C (second compound 0.0949 µM, first compound 10 µM): 53%
- viability, T/C [21]: 73.9%
- viability, T/C [22]: 74.7%
- viability, T/C [23]: 68%
- viability, T/C [24]: 69.5%
- viability, T/C (second compound 0.3 µM, first compound 3.16 µM): 57.6%
- viability, T/C (second compound 0.3 µM, first compound 10 µM): 41.8%

- IC50 (second compound 0.000949 µM): > 1000 nM
- IC50 (second compound 0.003 µM): 942 nM
- IC50 (second compound 0.00949 µM): > 1000 nM
- IC50 (second compound 0.03 µM): > 1000 nM
- IC50 (second compound 0.0949 µM): > 1000 nM
- IC50 (second compound 0.3 µM): 848 nM
Compound: C=CC(=O)Nc1cc(Nc2nccc(-c3cn(C)c4ccccc34)n2)c(OC)cc1N(C)CCN(C)C + CCn1c(-c2cccnc2C(C)OC)c2c3cc(ccc31)N1CCOC(CC(NC(=O)C(C(C)C)N(C)C(=O)C3(F)CCN(C(=O)C#CC(C)(C)N(C)C)CC3)C(=O)N3CCCC(N3)C(=O)OCC(C)(C)C2)C1
- viability, T/C (second compound 0.000949 µM, first compound 0.00316 µM): 104%
- viability, T/C (second compound 0.000949 µM, first compound 0.01 µM): 103%
- viability, T/C [1]: 107%
- viability, T/C [2]: 84.9%
- viability, T/C [3]: 95.9%
- viability, T/C [4]: 56.3%
- viability, T/C (second compound 0.003 µM, first compound 0.00316 µM): 99.3%
- viability, T/C (second compound 0.003 µM, first compound 0.01 µM): 99.9%
- viability, T/C [5]: 108%
- viability, T/C [6]: 95.4%
- viability, T/C [7]: 94.1%
- viability, T/C [8]: 47.1%
- viability, T/C (second compound 0.00949 µM, first compound 0.00316 µM): 95.8%
- viability, T/C (second compound 0.00949 µM, first compound 0.01 µM): 97.8%
- viability, T/C [9]: 102%
- viability, T/C [10]: 94.8%
- viability, T/C [11]: 91.4%
- viability, T/C [12]: 59.9%
- viability, T/C (second compound 0.03 µM, first compound 0.00316 µM): 107%
- viability, T/C (second compound 0.03 µM, first compound 0.01 µM): 105%
- viability, T/C [13]: 106%
- viability, T/C [14]: 110%
- viability, T/C [15]: 90.2%
- viability, T/C [16]: 58.3%
- viability, T/C (second compound 0.0949 µM, first compound 0.00316 µM): 105%
- viability, T/C (second compound 0.0949 µM, first compound 0.01 µM): 98.2%
- viability, T/C [17]: 92.3%
- viability, T/C [18]: 96.6%
- viability, T/C [19]: 92.2%
- viability, T/C [20]: 57%
- viability, T/C (second compound 0.3 µM, first compound 0.00316 µM): 84.8%
- viability, T/C (second compound 0.3 µM, first compound 0.01 µM): 67.8%
- viability, T/C [21]: 77.7%
- viability, T/C [22]: 76.1%
- viability, T/C [23]: 71.4%
- viability, T/C [24]: 46.4%
